A short description of data set [1]: Distribution of compounds in liver and blood of CD-1 mice. The class given is in vivo. The conditions noted are these: single oral dose; for Liver Concentration (@1.0 hour) / Plasma Concentration (@1.0 hour): 1 hour after administration; for Liver Concentration/Plasma Concentration (@1.0 hour) / Liver Concentration/Plasma Concentration (@4.0 hour): ratio; for Liver Concentration (@4.0 hour) / Plasma Concentration (@4.0 hour): 4 hours after administration. Here is the method: Experimental purpose: distribution of compounds in liver and blood of CD-1 mice was tested;
CD-1 Mice (male, 25-35 g, 6-9 weeks old, Shanghai Slack);
Experimental procedure: after oral administration, the drug was distributed in the liver and blood of rodents, candidate compounds in the experiment were formulated into a clear solution to be administered to mice in a single oral dose. The oral solvent was a certain proportion of an aqueous solution of hydroxypropyl β-cyclodextrin or a physiological saline solution. The concentration of the drug in the liver and blood was measured at 1 hour and 4 hours after administration.

The target of data set [2] is T1, VAP-1/SSAO (Homo sapiens (Human), UniProt Q16853). Briefly: Human VAP-1 enzyme activity assay (Amplex Red Monoamine Oxidase kit). The following applies: 10 nM VAP-1 enzyme, 30 min preincubation, benzylamine substrate; read-out: Human Recombinant VAP-1/SSAO Enzyme Inhibitory Activity IC50. The class given is biochemical. Here is the method: Human VAP-1 Enzyme Activity Assay:
The inhibition of the sample on VAP-1 enzyme activity was measured by using an Amplex® Red Monoamine Oxidase kit (Invitrogen #A12214). 100 nL of the gradiently-diluted to-be-tested compound (solvent DMSO) was added to a 384-well plate. 25 μL of 10 nM VAP-1 enzyme solution was added and incubated for 30 minutes at room temperature. A substrate mixture of VAP-1 enzyme (200 μM Amplex Red, 1 U/mL HRP, 1 mM Benzylamine) was added and incubated for 60 minutes at room temperature. After the incubation, the fluorescent signal was read with a microplate reader Envision (excitation light wavelength 530-560 nm, emission light wavelength 590 nm). The fluorescence signal value after the background signal was removed was analyzed by Prism software, and the IC50 of the sample against the VAP-1 enzyme was calculated.

For data set [3], the target named is T1, VAP-1/SSAO. Briefly: VAP-1 cell activity assay (HUVEC or CHO cells transfected with VAP-1/pCDNA(3.1) plasmid, Amplex Red). The class given is cell-based. The conditions noted are these: HUVEC or CHO cells transfected with VAP-1 plasmid; read-out: VAP-1/SSAO Cellular Inhibitory Activity IC50. On the procedure: The inhibition of the sample on VAP-1 cell activity was measured by using an Amplex® Red Monoamine Oxidase kit (Invitrogen #A12214).
The cultured HUVEC or CHO cells were plated into a 6-well plate at a density of 0.8 M/well, placed in a 37° C., 5% CO2 incubator for incubation for 24 hours, and then the cells was transferred with a Lipo2000 reagent and a VAP-1/pCDNA (3.1) plasmid, and liquid was changed for the cells after 5 hours (Lipo2000 was toxic to the cells); after 24 hours, the cells were digested and plated into 384-well plates with a density of 25 μl, 10000 cells/well, and liquid was replaced with medium without FBS for the cells after 6-7 hours, and the cell plates were incubated overnight at 37° C. in a 5% CO2 incubator.
1) Dilution of the compound: serial dilution in 4× gradient was carried out with 100% DMSO, 10 points were diluted, the starting concentration of the to-be-tested compound was 0.5 mM (final concentration was 1) μM); 100 nl of compound solution was transferred to a 384-well cell assay plate with ECHO. […]
5) The reaction was carried out in the dark at room temperature for 60 minutes, and the fluorescence value was measured by Envision: the excitation wave was 535 nm, and the emission wave was 590 nm. […]
7) The data were analyzed with Prism. The IC50 of the sample against VAP-1 cells was calculated.

Data set [4] relates to CCl4-induced chronic liver fibrosis male C57BL/6 model. Kind of data set: Oral CCl4-induced chronic liver fibrosis model. The class given is in vivo, C57BL/6 mice. The conditions noted are these: oral daily for 28 days, superior to PXS-4728A in the same dosage. On the procedure: The therapeutic effect of compounds on an oral CCl4-induced chronic liver fibrosis male C57BL/6 model was tested.
Male C57BL/6 mice, 7-8 weeks old;
Experimental method: Male C57BL/6 mice were orally administered from the day CCl4 was put for modeling, and administered daily. Continuous administration was conducted for 28 days. The animals were fasted for at least 6 hours on the next day after the last administration Animal weight was measured during euthanasia and all animals were euthanized under the guidance of the KCl Animal Euthanasia SOP. Non-anticoagulant venous blood of mice was collected from the ocular venous plexus. The whole blood was allowed to stand at room temperature for 30 minutes, and centrifuged at 5000 rpm for 5 minutes, and the serum was separated and placed in a 1.5 ml EP tube and stored at −80° C. After the whole body of the animal was perfused with hypothermic saline, the liver was taken and subjected to tissue gross image acquisition. The left lobe of the liver was divided into 4 equal parts and put into 4 tissue cryotubes for liquid nitrogen freezing, and then transferred to −80° C. for storage. The rest of the liver tissue was fixed in 10% neutral formalin fixative. […] HE staining was subjected to double-blind score by two pathological readers, and the area of hepatic fibrosis was analyzed for sirius-red stained sections by digital pathology.

The target of data set [5] is hERG potassium ion channel (Homo sapiens (Human), UniProt Q12809). Briefly: Inhibition test of hERG potassium ion channel (automatic patch clamp, CHO-hERG cells). The class given is cell-based. The conditions noted are these: conclusion in words. On the procedure:
The effect of the to-be-tested compound on the potassium ion channel of hERG was detected by a fully automatic patch clamp method.
The cells stably expressing hERG potassium channel used in the experiment were obtained from CHO-hERE of Aviva Biosciences, and CHO-hERG was cultured in 5% CO2 at 37° C.
CHO-hERG cells prepared for the experiment were cultured for at least two days, and the cell density reached 75% or more. Prior to the start of the experiment, cells were digested with TrypLE and then resuspended in extracellular fluid to collect the cells.
Extracellular fluids need to be prepared once a month. The intracellular fluid need to be subpackaged and frozen at −20° C.
The to-be-tested compound and the positive control Amitriptyline were dissolved in DMSO to a certain concentration of the stock solution, and then diluted according to different gradients, and finally added to the extracellular fluid in a certain ratio, and diluted to a concentration to be measured. Visual inspection was performed to see if there was any precipitation before the start of the experiment. Finally, the concentration of DMSO in the to-be-tested solution and the positive control Amitriptyline should not exceed 0.3%. […]
In each complete current record, based on the percentage of peak current in the negative control, the percent inhibition of the concentration of each compound can be calculated. […]
On the technique in general: Block of hERG is tested as a sign of cardiac risk.

hERG potassium ion channel, sequence (Q12809 whole entry): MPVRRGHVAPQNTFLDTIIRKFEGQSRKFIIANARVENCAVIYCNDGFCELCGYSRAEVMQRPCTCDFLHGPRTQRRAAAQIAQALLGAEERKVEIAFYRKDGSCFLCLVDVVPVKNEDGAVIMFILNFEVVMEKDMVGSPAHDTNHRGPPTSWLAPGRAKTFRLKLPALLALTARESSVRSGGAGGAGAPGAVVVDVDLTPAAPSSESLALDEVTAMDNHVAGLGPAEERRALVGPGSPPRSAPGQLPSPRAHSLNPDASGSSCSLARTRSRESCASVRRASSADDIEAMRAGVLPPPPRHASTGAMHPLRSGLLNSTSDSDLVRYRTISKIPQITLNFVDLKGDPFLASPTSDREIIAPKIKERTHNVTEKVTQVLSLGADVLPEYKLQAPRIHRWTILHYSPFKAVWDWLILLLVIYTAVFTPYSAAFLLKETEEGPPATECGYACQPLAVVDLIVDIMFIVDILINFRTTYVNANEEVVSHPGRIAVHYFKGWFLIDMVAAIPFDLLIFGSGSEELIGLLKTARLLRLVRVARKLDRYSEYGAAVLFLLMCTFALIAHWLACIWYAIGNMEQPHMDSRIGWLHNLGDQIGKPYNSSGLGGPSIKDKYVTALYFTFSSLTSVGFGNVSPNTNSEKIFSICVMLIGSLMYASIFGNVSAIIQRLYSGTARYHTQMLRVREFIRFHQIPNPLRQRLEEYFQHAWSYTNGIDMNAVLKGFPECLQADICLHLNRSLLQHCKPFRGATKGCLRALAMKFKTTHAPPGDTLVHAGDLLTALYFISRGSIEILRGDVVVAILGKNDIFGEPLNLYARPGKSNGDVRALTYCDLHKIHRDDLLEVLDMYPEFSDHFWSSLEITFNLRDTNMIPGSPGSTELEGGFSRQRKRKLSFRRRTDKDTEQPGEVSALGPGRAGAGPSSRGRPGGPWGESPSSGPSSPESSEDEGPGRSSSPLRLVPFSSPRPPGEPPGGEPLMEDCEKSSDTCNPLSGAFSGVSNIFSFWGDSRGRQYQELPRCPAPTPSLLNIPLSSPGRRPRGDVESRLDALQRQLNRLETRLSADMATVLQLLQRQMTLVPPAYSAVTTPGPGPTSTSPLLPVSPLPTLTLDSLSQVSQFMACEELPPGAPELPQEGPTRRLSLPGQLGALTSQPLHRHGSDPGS
T1 sequence (Q16853 whole entry): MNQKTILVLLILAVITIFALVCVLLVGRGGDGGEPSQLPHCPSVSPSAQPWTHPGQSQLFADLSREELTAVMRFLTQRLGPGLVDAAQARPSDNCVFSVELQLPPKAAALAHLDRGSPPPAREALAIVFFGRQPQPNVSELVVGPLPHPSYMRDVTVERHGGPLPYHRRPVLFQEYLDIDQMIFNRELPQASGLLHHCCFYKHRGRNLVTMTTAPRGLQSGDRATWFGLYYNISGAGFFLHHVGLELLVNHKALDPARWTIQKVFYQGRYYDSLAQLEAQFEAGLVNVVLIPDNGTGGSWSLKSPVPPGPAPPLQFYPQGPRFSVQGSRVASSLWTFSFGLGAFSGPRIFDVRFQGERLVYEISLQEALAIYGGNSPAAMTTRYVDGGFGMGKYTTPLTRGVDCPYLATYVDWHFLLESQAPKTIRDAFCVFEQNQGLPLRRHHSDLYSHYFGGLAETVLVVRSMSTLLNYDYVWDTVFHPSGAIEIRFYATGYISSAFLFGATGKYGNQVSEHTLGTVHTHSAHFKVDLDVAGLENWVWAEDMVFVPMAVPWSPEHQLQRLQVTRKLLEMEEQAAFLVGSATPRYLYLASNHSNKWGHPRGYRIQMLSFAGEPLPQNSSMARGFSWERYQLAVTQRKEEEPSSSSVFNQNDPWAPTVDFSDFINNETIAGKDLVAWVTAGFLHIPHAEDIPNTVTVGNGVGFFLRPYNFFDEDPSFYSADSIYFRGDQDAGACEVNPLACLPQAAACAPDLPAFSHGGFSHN

On to `CC(C)(C)NC(=O)c1ccc(OC/C(=C/F)CN)cc1.Cl` [PXS-4728A, reference compound], for which, in data set [1], the “Liver Concentration (@1.0 hour)” value was 13140, the “Plasma Concentration (@1.0 hour)” value is on record as 1470, the “Liver Concentration/Plasma Concentration (@1.0 hour)” value stood at 10 and the “Liver Concentration (@4.0 hour)” value amounted to 2120. Further, in data set [1], the “Plasma Concentration (@4.0 hour)” value was 154 and the “Liver Concentration/Plasma Concentration (@4.0 hour)” value is on record as 14.
As for `Cn1nc(-c2ccc(OC/C(=C/F)CN)cc2F)nc1C1CC1` [WX098], the IC50 at VAP-1/SSAO [2] turned out to be 1.8 nM; on VAP-1/SSAO [3], 0.2 nM.
On to `Cl.Cn1nc(-c2ccc(OC/C(=C/F)CN)cc2)nc1C(F)F` [WX126], for which, in data set [4], the “effect on liver fibrosis (Sirius-Red staining)” value was “obvious improvement effect” and the “effect on liver injury (liver injury score, HE staining)” value is “obvious improvement effect”. In data set [5], the “inhibition of hERG potassium current” value is reported as “weak inhibition”. In data set [1], the “Liver Concentration (@1.0 hour)” value came out at 13520, the “Plasma Concentration (@1.0 hour)” value was found to be 934, the “Liver Concentration/Plasma Concentration (@1.0 hour)” value was found to be 15 and the “Liver Concentration (@4.0 hour)” value came out at 3364. In data set [1], the “Plasma Concentration (@4.0 hour)” value is given as 190 and the “Liver Concentration/Plasma Concentration (@4.0 hour)” value came out at 17.
With `Cc1noc(-c2ccc(OC/C(=C/F)CN)cc2)n1.Cl` [WX008], the “inhibition of hERG potassium current” value in data set [5] is recorded as “weak inhibition”.

These data come from patent US11505532B2, “SSAO inhibitor” (SHANDONG DANHONG PHARMACEUTICAL CO., LTD., priority 2017, dated 2022).
